{"source": "paper PMC5289526", "about": "“Crystal Structure and Catalytic Mechanism of CouO, a Versatile C-Methyltransferase from Streptomyces rishiriensis” (PLoS ONE, 2017)", "molecular_target": "T1, CouO (Streptomyces rishiriensis, UniProt Q9F8T9)", "T1 construct": "recombinant from E. coli; pET26b-CouO template, pMS470 vector in E. coli TOP10F' for activity assays", "T1 sequence (Q9F8T9 whole entry)": "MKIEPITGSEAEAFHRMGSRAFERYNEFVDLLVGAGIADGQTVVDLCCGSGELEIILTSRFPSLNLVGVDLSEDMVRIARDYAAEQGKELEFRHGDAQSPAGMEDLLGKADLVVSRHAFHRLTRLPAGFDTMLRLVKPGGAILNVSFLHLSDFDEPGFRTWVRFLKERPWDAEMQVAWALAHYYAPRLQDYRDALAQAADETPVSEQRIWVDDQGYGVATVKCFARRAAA", "assay": "X-ray crystal structure, […] Å", "type": "binding", "details": "one SAH in each of two chains; cofactor site"}
{"smiles": "Nc1ncnc2c1ncn2[C@@H]1O[C@H](CSCC[C@H](N)C(=O)O)[C@@H](O)[C@H]1O", "note": "[SAH]", "values": [{"measurement": "X-ray crystal structure, 2.05 Å", "value": "one SAH cofactor molecule was present in each chain"}]}
